Measurements as given in US9671340B2, “Measurement method for determining an organ function” (SMARTDYELIVERY GMBH, priority 2010, dated 2017).
Like-named read-outs stand apart in the source and are kept apart here. One block for each molecule: values may come before it.

Columns and labels:
[1] = In vivo determination of kidney function, imaging of dye excretion via the kidneys; design: species or system WISTAR rats
Description: (§1) Male WISTAR rats (12-16 weeks old, body mass 400±50 g; Harlan Laboratories, Horst, Netherlands) were used in this study. All tests were carried out in accordance with the German laws for the protection of animals and with the approval of the regional animal protection commission in Bad Langensalza, Thuringia, Germany. The body temperature was kept constant at 37° during the surgical preparation and the experimental tests, in each case using a warming plate and a heatable specimen stage of the microscope. All preparations were carried out under aseptic conditions.
Further experiments were carried out to ascertain kidney function using DY652 (data not shown here) and DY647.
The kidney tissue and the widely ramified kidney vascular system can be seen in the recorded images.
FIG. 7: in vivo imaging of the excretion of DY647 via the kidneys.

[2] = Water solubility of the dye; assay type: physicochemical
[3] = rat, in vivo
Description: as §1
A special model of polymicrobial sepsis with some modifications was used, which was originally described by Bauhofer (Bauhofer et al., 2004, 2006; Lorenz et al., 2004). With this model the sepsis is induced by peritoneal contamination and infection (PCI).
A standardised human stool inoculum was used for the PCI. Immediately after collection, the stool sample was diluted 1:1 with pre-reduced thioglycolate-bouillion, containing 10% sterile barium sulphate and 10% glycerol, and was then homogenised under anaerobic conditions. Lastly, the stool samples were stored at −80° C. until use. Before the inoculation, the stool samples were diluted 1:4 in 0.9% NaCl. The inoculum was analysed microbiologically in order to establish the number of strains after storage. The rats were instrumented 24 h before the PCI and anaesthetised using Desflurane (Baxter, Munich, Germany) via a facemask. A jugular vein catheter (polyethylene, autoclave-sterilised, OD:1.0 mm, Portex, UK) was used for the fluid replacement and was tunneled subcutaneously as far as the approach to the nape of the neck. The catheter was mounted on a hinge-jointed retaining system, which enabled unrestricted movement in the cage after recovery from the anaesthetic.
In introductory studies, the dose of the inoculum was adapted such that a 100% mortality rate was achieved within 40 h. The animals were assigned randomly to the control group (sham) or the PCI group. With short ether anaesthesia, the inoculum was injected intraperitoneally into the pelvis region using a 21 G cannula. The animals in the control group (sham) received 0.9% NaCl in the same amount. After the procedure, both groups received fluid replacement (10 ml/kg/KG/h, Jonosteril®, Fresenius Kabi GmbH, Germany) as well as food and water ad libitum.
The plasma disappearance rate (PDR) and the bile excretion of the dyes DY635 (Dyomics, Jena, Germany) and indocyanine green as a comparative experiment (ICG; Pulsion, Munich, Germany) were determined in vivo.
The animals were anaesthetised 15 h after sepsis or induction of the control group.
An arterial catheter was used for haemodynamic monitoring. A midline and right subcostal laparotomy was performed and the ductus choledochus was provided with a polyethylene catheter (polyethylene, autoclave-sterilised, OD:1.0 mm, Portex, UK) for the collection of bile via a cannula. The wound was then closed using Mersilene 2-0 (Ethicon, Hamburg, Germany) and the anaesthetisation was maintained.
The dye was administered via a jugular vein catheter. The blood samples and bile samples were taken from the zero point and then every 15 min for a period of 60 min. Blood losses caused by these blood samples were adequately counter balanced by infusions. The haemodynamic monitoring was carried out continuously.

[4] = cited from earlier work
[5] = at clinically conventional dose; cited from earlier work
[6] = In vivo determination of hepatocellular and canalicular transport by intravital epifluorescence microscopy of the liver; design: species or system WISTAR rats; conditions: periportal and perivenous areas, up to 35 min after application
Description: Changes to the hepatocellular uptake and the canalicular elimination were measured 15 h after sepsis or induction of the control group by in vivo imaging of the exclusively hepatocytically eliminated dye indocyanine green (Pulsion, Munich, Germany) and of DY635 using an inverted epiflourescence microscope (AxioObserver® Z1; Zeiss, Jena, Germany), equipped with a computer-controlled, highly-precise scanning platform (Marzhäuser, Wetzlar, Germany).
775 nm to 805 nm excitation and 845 nm to 855 nm emission bandpass filters were used to image the dye indocyanine green. […]
In order to locate 16 regions (regions of interest: ROI) for the in vivo imagings of the dye, the liver surface was rasterised; 8 pericentral and 8 periportal regions were established and the exact position thereof was determined on the computer-controlled scanning stage using AxioVision® software and stored so that the predefined ROI were accessible during future experiments. […]
Before the indocyanine green or DY635 was added, base line images of the defined ROI were recorded using the AxioVision® multi-channel module (×40/0.6 lens, 365 nm to 395 nm excitation and 445 nm to 450 nm emission bandpass filter and 775 nm to 805 nm excitation and 845 nm to 855 nm emission bandpass filter). […]

cultivated hepatocytes = experiment: Cytotoxicity, survival of cultivated hepatocytes 24 h after addition of dye (MTT assay); assay type: cell-based
Description: FIG. 6: comparison of the cytotoxicity between ICG and DY635. In each case the survival of cultivated hepatocytes 24 h after addition of different concentration of the dyes is shown (MTT assay).

- detection of the dye in urine after application ([1]; after application): detected in urine
- route of excretion ([1]; in vivo measurements of the kidneys): excreted selectively via the kidneys
- solubility in water [2]: water-soluble
Structure (SMILES): CCN1/C(=C/C=C/C=C/C2=[N+](CC)c3ccc(S(=O)(=O)O)cc3C2(C)C)C(C)(CCCC(=O)O)c2cc(S(=O)(=O)O)ccc21 (stereo not drawn) [DY647, 2-{(1E,3E)-5-(3-(3-carboxy-propyl)-1-ethyl-3-methyl-5-sulfo-1,3-dihydro-indol-(2E)-ylidene]-penta-1,3-dienyl)-1-ethyl-3,3-dimethyl-5-sulfo-3H-indolium]
- location of the dye in the kidneys ([1]; 5 minutes after application): can be seen in the vascular system of the kidneys
- location of the dye in the kidneys ([1]; after 90 minutes): has left the vascular system and can be seen in the kidney tubules

Structure (SMILES): CC1(C)C(/C=C/C=C/C=C/C=C2\N(CCCCS(=O)(=O)O)c3ccc4ccccc4c3C2(C)C)=[N+](CCCCS(=O)(=O)[O-])c2ccc3ccccc3c21 [ICG, indocyanine green]
- dye concentration in the bile after 60 minutes [3]: high ICG values could still be measured
- plasma concentration of the dye immediately after application, septic vs control animals [3]: Less ICG can be traced in the plasma of the septic animals
- metabolism and extrahepatic elimination ([4]; current state of knowledge): neither metabolised nor eliminated extrahepatically
- time until the dye appears unconjugated in the bile ([4]; following intravenous injection (0.1-0.5 mg/kg KG)): approximately 8 min
- binding to plasma proteins ([4]; following intravenous injection, within a short period of time): fully bonded to plasma proteins
- toxicity [5]: negligible toxicity

Structure (SMILES): CC(C)(C)c1cc(/C=C/C=C2/N(CCCCCC(=O)O)c3ccc(S(=O)(=O)O)cc3C2(C)C)c2cc3c4c(c2[o+]1)CCCN4CCC3 [DY635]
- plasma concentration of the dye immediately after application, septic vs control animals ([3]; male, Wistar): Less DY635 in the plasma was traceable in the healthy animals than in the sick animals
- time to complete uptake of the dye into the hepatocytes ([3]; male, Wistar): ≤ 15 min
- accumulation of the dye in healthy animals, compared with ICG [3]: accumulates much less considerably in healthy animals than ICG
- detection of the dye in the kidneys or in the urine [3]: could not be detected
- speed of canalicular excretion into the bile fluid, compared with ICG [3]: excreted more quickly
- decrease of specific fluorescence intensity (dye concentration) in the organ tissue, compared with ICG [6]: decreases much more sharply
- cytotoxicity in comparison with ICG (cultivated hepatocytes): very low cytotoxicity
